{"source": "patent US10788497B2", "about": "“Method for detecting oxidising species” (ECOLE POLYTECHNIQUE, priority 2015, dated 2020)", "tested_on": "EGFR (Epidermal Growth Factor Receptor)", "assay": "Hydrogen peroxide production in vascular smooth muscle cells after endothelin-1 stimulation, with or without EGFR inhibition, measured with YAG:Ce and reduced GdVO4:Eu nanoparticles", "type": "cell-based", "conditions": "mouse vascular smooth muscle cells; 270 nM endothelin-1; AG1478 applied 30 min before stimulation and added to the observation medium", "experimental": "Firstly, mammalian cells were prepared. For this purpose, mouse vascular smooth muscle cells (primary culture) were cultured in RPMI (“Roswell Park Memorial Institute” medium) containing 10% of fetal calf serum and antibiotics, in the present case penicillin and streptomycin. When confluence reaches 80%, the cells are taken and deposited on glass slides. In this particular case, 1.5×10^4 cells are typically arranged on a glass slide. The cells are then cultured on the slides for forty-eight hours in the complete culture medium, and then in a medium without serum for twenty-four hours.\nIn addition, a stable colloidal solution of […] with a concentration roughly equal to 1 mM is prepared. […]\nThen a slide with cells loaded with nanoparticles is placed on a sample holder and 1 mL of buffered physiological medium (HBSS/1 mM HEPES) is added. […] After fifty seconds of observation, the initial medium is replaced with physiological medium containing 270 nM of endothelin-1 (ET-1) and the luminescence of individual nanoparticles is observed for several minutes on a full-field sensor (EM-CCD ImageEM camera, Hamamatsu). […]\nNext, the variations in intensity of the particles observed (doped with Ce or Eu) over time are determined using image analysis or calculation software (for example Matlab). Each curve obtained is normalized, taking the first values measured for reference. […]", "data": [{"smiles": "COc1cc2ncnc(Nc3cccc(Cl)c3)c2cc1OC", "note": "[AG1478]", "values": [{"measurement": "contribution of the EGFR pathway to hydrogen peroxide production (inhibited cells produce half as much hydrogen peroxide as the normal cells)", "result": 50, "unit": "%"}]}]}
